In US8153360B2, “Flavivirus fusion inhibitors” (The Administrators of the Tulane Educational Fund, priority 2002, dated 2012):

Assays:
[1] = test system: H77-E1E2 pseudotype expressing envelope glycoproteins E1 and E2 of the H77 strain of HCV; experiment: HCV pseudotype infectivity, luciferase activity of cell lysates; format: cell-based, hepatitis C virus; details: peptide about 25 μM (asterisked peptides 10 μM or less); for H77-E1E2 number of luciferase units (lumens) produced after infection: 72 h at 37° C., vehicle 113,733; for Percent Inhibition (H77-E1E2 HCV pseudotype infectivity): relative to DMSO vehicle
[2] = test system: pseudotype expressing the envelope glycoprotein of murine leukemia virus (MLV); experiment: MLV pseudotype infectivity, luciferase activity (peptide/cytotoxicity control); format: cell-based; details: peptide about 25 μM (asterisked peptides 10 μM or less); for MLV number of luciferase units (lumens) produced after infection: 72 h at 37° C., vehicle 439,158; for Percent inhibition (MLV pseudotype infectivity): relative to DMSO vehicle
HIV-1 [3] = details: cited from earlier work
HIV-1 [4] = details: preliminary results from phase III clinical trials; cited from earlier work

AALVVAQLLRIPQAIMDM [Peptide 73]
H77-E1E2 number of luciferase units (lumens) produced after infection [1]: 100,666 luciferase units (lumens)
MLV number of luciferase units (lumens) produced after infection [2]: 433,001 luciferase units (lumens)
Percent inhibition (MLV pseudotype infectivity) [2]: 1.40%

AHWGVLAGIKYFSMVGNW [Peptide 76]
H77-E1E2 number of luciferase units (lumens) produced after infection [1]: 96,283 luciferase units (lumens)
MLV number of luciferase units (lumens) produced after infection [2]: 473,757 luciferase units (lumens)
Percent inhibition (MLV pseudotype infectivity) [2]: −7.88%

ALYVGDLCGSVFLVGQLF [Peptide 65]
H77-E1E2 number of luciferase units (lumens) produced after infection [1]: 87,726 luciferase units (lumens)
MLV number of luciferase units (lumens) produced after infection [2]: 491,789 luciferase units (lumens)
Percent inhibition (MLV pseudotype infectivity) [2]: −11.98%

CGSVFLVGQLFTFSPRHH [Peptide 66]
H77-E1E2 number of luciferase units (lumens) produced after infection [1]: 23,387 luciferase units (lumens)
MLV number of luciferase units (lumens) produced after infection [2]: 189,683 luciferase units (lumens)
Percent inhibition (MLV pseudotype infectivity) [2]: 56.81%

DAILHTPGCVPCVREGNA [Peptide 57]
H77-E1E2 number of luciferase units (lumens) produced after infection [1]: 169,860 luciferase units (lumens)
MLV number of luciferase units (lumens) produced after infection [2]: 331,852 luciferase units (lumens)
Percent inhibition (MLV pseudotype infectivity) [2]: 24.44%

GCVPCVREGNASRCWVAV [Peptide 58]
H77-E1E2 number of luciferase units (lumens) produced after infection [1]: 118,767 luciferase units (lumens)
MLV number of luciferase units (lumens) produced after infection [2]: 329,895 luciferase units (lumens)
Percent inhibition (MLV pseudotype infectivity) [2]: 24.98%

GIKYFSMVGNWAKVLVVL [Peptide 77]
H77-E1E2 number of luciferase units (lumens) produced after infection [1]: 56,425 luciferase units (lumens)
MLV number of luciferase units (lumens) produced after infection [2]: 321,076 luciferase units (lumens)
Percent inhibition (MLV pseudotype infectivity) [2]: 26.89%

GQLFTFSPRHHWTTQDCN [Peptide 67]
H77-E1E2 number of luciferase units (lumens) produced after infection [1]: 64,601 luciferase units (lumens)
MLV number of luciferase units (lumens) produced after infection [2]: 357,577 luciferase units (lumens)
Percent inhibition (MLV pseudotype infectivity) [2]: 28.58%

GSATLCSALYVGDLCGSV [Peptide 64]
H77-E1E2 number of luciferase units (lumens) produced after infection [1]: 113,108 luciferase units (lumens)
MLV number of luciferase units (lumens) produced after infection [2]: 316,948 luciferase units (lumens)
Percent inhibition (MLV pseudotype infectivity) [2]: 27.83%

HRMANMMMNWSPTAALV [Peptide 71]
H77-E1E2 number of luciferase units (lumens) produced after infection [1]: 83,489 luciferase units (lumens)
MLV number of luciferase units (lumens) produced after infection [2]: 533,765 luciferase units (lumens)
Percent inhibition (MLV pseudotype infectivity) [2]: −21.54%

IMDMIAGAHWGVLAGIKY [Peptide 75]
H77-E1E2 number of luciferase units (lumens) produced after infection [1]: 113,359 luciferase units (lumens)
MLV number of luciferase units (lumens) produced after infection [2]: 420,026 luciferase units (lumens)
Percent inhibition (MLV pseudotype infectivity) [2]: 4.36%

LLRIPQAIMDMIAGAHWG [Peptide 74]
H77-E1E2 number of luciferase units (lumens) produced after infection [1]: 32,888 luciferase units (lumens)
MLV number of luciferase units (lumens) produced after infection [2]: 467,876 luciferase units (lumens)
Percent inhibition (MLV pseudotype infectivity) [2]: −6.54%

LPTTQLRRHIDLLVGSAT [Peptide 62]
H77-E1E2 number of luciferase units (lumens) produced after infection [1]: 115,966 luciferase units (lumens)
MLV number of luciferase units (lumens) produced after infection [2]: 415,014 luciferase units (lumens)
Percent inhibition (MLV pseudotype infectivity) [2]: 5.50%

LVVLLLFAGVDAETHVTG [Peptide 79]
H77-E1E2 number of luciferase units (lumens) produced after infection [1]: 101,702 luciferase units (lumens)
MLV number of luciferase units (lumens) produced after infection [2]: 740,034 luciferase units (lumens)
Percent inhibition (MLV pseudotype infectivity) [2]: −68.51%

MMNWSPTAALVVAQLLRI [Peptide 72]
H77-E1E2 number of luciferase units (lumens) produced after infection [1]: 75,763 luciferase units (lumens)
MLV number of luciferase units (lumens) produced after infection [2]: 392,680 luciferase units (lumens)
Percent inhibition (MLV pseudotype infectivity) [2]: 10.58%

PRHHWTTQDCNCSIYPGH [Peptide 68]
H77-E1E2 number of luciferase units (lumens) produced after infection [1]: 79,297 luciferase units (lumens)
MLV number of luciferase units (lumens) produced after infection [2]: 498,991 luciferase units (lumens)
Percent inhibition (MLV pseudotype infectivity) [2]: −13.62%

QDCNCSIYPGHITGHRMA [Peptide 69]
H77-E1E2 number of luciferase units (lumens) produced after infection [1]: 196,922 luciferase units (lumens)
MLV number of luciferase units (lumens) produced after infection [2]: 354,027 luciferase units (lumens)
Percent inhibition (MLV pseudotype infectivity) [2]: 19.39%

RHIDLLVGSATLCSALYV [Peptide 63]
H77-E1E2 number of luciferase units (lumens) produced after infection [1]: 57,915 luciferase units (lumens)
MLV number of luciferase units (lumens) produced after infection [2]: 438,440 luciferase units (lumens)
Percent inhibition (MLV pseudotype infectivity) [2]: 0.16%

SAYQVRNSSGLYHVTNDC [Peptide 53]
H77-E1E2 number of luciferase units (lumens) produced after infection [1]: 113,469 luciferase units (lumens)
MLV number of luciferase units (lumens) produced after infection [2]: 443,528 luciferase units (lumens)
Percent inhibition (MLV pseudotype infectivity) [2]: −9.95%

SCLTVPASAYQVRNSSGL [Peptide 52]
H77-E1E2 number of luciferase units (lumens) produced after infection [1]: 133,259 luciferase units (lumens)
MLV number of luciferase units (lumens) produced after infection [2]: 533,179 luciferase units (lumens)
Percent inhibition (MLV pseudotype infectivity) [2]: −21.4%

SIVYEAADAILHTPGCVP [Peptide 56]
H77-E1E2 number of luciferase units (lumens) produced after infection [1]: 65,612 luciferase units (lumens)
MLV number of luciferase units (lumens) produced after infection [2]: 433,459 luciferase units (lumens)
Percent inhibition (MLV pseudotype infectivity) [2]: 1.30%

SSGLYHVTNDCPNSSIVY [Peptide 54]
H77-E1E2 number of luciferase units (lumens) produced after infection [1]: 74 luciferase units (lumens)
MLV number of luciferase units (lumens) produced after infection [2]: 280,113 luciferase units (lumens)
Percent inhibition (MLV pseudotype infectivity) [2]: 36.22%

TNDCPNSSVVYEAADAIL [Peptide 55]
H77-E1E2 number of luciferase units (lumens) produced after infection [1]: 112,470 luciferase units (lumens)
MLV number of luciferase units (lumens) produced after infection [2]: 447,957 luciferase units (lumens)
Percent inhibition (MLV pseudotype infectivity) [2]: −2.00%

VATRDGKLPTTQLRRHID [Peptide 61]
H77-E1E2 number of luciferase units (lumens) produced after infection [1]: 148,796 luciferase units (lumens)
MLV number of luciferase units (lumens) produced after infection [2]: 423,925 luciferase units (lumens)
Percent inhibition (MLV pseudotype infectivity) [2]: 3.47%

VGNWAKVLVVLLLFAGVD [Peptide 78]
H77-E1E2 number of luciferase units (lumens) produced after infection [1]: 137,700 luciferase units (lumens)
MLV number of luciferase units (lumens) produced after infection [2]: 402,953 luciferase units (lumens)
Percent inhibition (MLV pseudotype infectivity) [2]: 8.24%

WVAVTPTVATRDGKLPTT [Peptide 59]
H77-E1E2 number of luciferase units (lumens) produced after infection [1]: 91,794 luciferase units (lumens)
Percent Inhibition (H77-E1E2 HCV pseudotype infectivity) [1]: 19.29%
MLV number of luciferase units (lumens) produced after infection [2]: 446,063 luciferase units (lumens)
Percent inhibition (MLV pseudotype infectivity) [2]: −1.57%

WVAVTPTVATRDGKLPTT [Peptide 60]
H77-E1E2 number of luciferase units (lumens) produced after infection [1]: 98,766 luciferase units (lumens)
Percent Inhibition (H77-E1E2 HCV pseudotype infectivity) [1]: 13.16%
MLV number of luciferase units (lumens) produced after infection [2]: 340,384 luciferase units (lumens)
Percent inhibition (MLV pseudotype infectivity) [2]: 22.49%

YPGHITGHRMANMMMNW [Peptide 70]
H77-E1E2 number of luciferase units (lumens) produced after infection [1]: 15,717 luciferase units (lumens)
MLV number of luciferase units (lumens) produced after infection [2]: 553,120 luciferase units (lumens)
Percent inhibition (MLV pseudotype infectivity) [2]: −25.95%

enfuvirtide
Inhibition of HIV-1 infectivity (HIV-1 [3]): inhibit HIV-1 infectivity
Effect on HIV-1 load in AIDS patients (HIV-1 [4]): substantially reduce HIV-1 load
